These results are taken from US6362170B1, “Benzylglycosylamides as inhibitors of smooth muscle cell proliferation” (American Home Products Corporation, priority 1998, dated 2002).

The assay deals with Porcine Smooth Muscle Cell. In words: Effects of compounds on cell proliferation using 3H thymidine incorporation. The class given is cell-based. To be noted: serum/growth factor stimulated cells; for IC50: 24-36 h incubation, read-out: Porcine Smooth Muscle Cell Antiproliferation IC50. As for the experimental part:
Effects of Compounds on Cell Proliferation Using ^3H Thymidine Incorporation
Human and porcine smooth muscle cells were tested in early passage (generally passage 3-7) at sub-confluent conditions. Cultures were grown in 16 mm (24 well) multi-well culture dishes in medium 199 supplemented with 10% fetal bovine serum and 2% antibiotic/antimycotic. At sub-confluence, the cells were placed in a defined serum free medium (AIM-V; Gibco) for 24-48 h prior to initiating the experimental protocol.
Compounds were added to each well at 50 fold dilution (20 μL/well) and the plates were incubated for 24-36 h at 37° C. in 5% CO2. Compounds were initially dissolved in 50% ethanol and serially diluted into media. Compounds were routinely evaluated at concentrations from 1 to 100 μM. As a control, grade II porcine intestinal mucosal heparin (sodium salt) was routinely evaluated in all cell preparations at concentrations from 0.1 to 100 μg/mL.
At the completion of the test procedure, plates were placed on ice, washed three times with ice cold phosphate buffered saline (PBS) and incubated in ice cold 10% trichloroacetic acid (TCA) got 30 min to remove acid soluble proteins. Solution was transferred to scintillation vials containing 0.4 N HCl (500 μL/vial to neutralize NaOH) and each well was rinsed two times with water (500 μL) for a total volume of 2 mL/vial.
Data was obtained, in triplicate, for both control and experimental samples. Control (100%) data was obtained from maximally stimulated cells, as the result of growth factor or serum stimulation. Experimental data was obtained from cells maximally stimulated with growth factor or serum and treated with compound. Data are provided below in Table 1 as an IC50.

Turning to `CC(=O)OCC1OC(NC(=O)c2ccc(Cl)nc2)C(OC(C)=O)C(OC(C)=O)C1OC1OC(COC(C)=O)C(OC(C)=O)C(OC(C)=O)C1OC(C)=O` [Example 1, 6-Chloro-N-(Hepta-O-acetyl-β-D-cellobiosyl)-3-pyridinecarboxamide], the IC50 came out at 3.55 µM. Regarding `O=C(NC1OC(CO)C(OC2OC3COC(c4ccccc4)OC3C(O)C2O)C(O)C1O)c1ccc(Cl)nc1` [Example 2, N-(4′,6′-O-benzylidene-β-D-cellobiosyl)-6-chloro-nicotinamide], the “Porcine Smooth Muscle Cell Antiproliferation (% at 50 μM)” value was found to be 40% at 50 μM.

Turning to `COc1ccc(C(=O)NC2OC(COC(C)=O)C(OC3OC(COC(C)=O)C(OC(C)=O)C(OC(C)=O)C3OC(C)=O)C(OC(C)=O)C2OC(C)=O)c(OC)n1` (centres unmarked) [Example 4], the IC50 was found to be 3.11 µM.

With `CC(=O)OCC1OC(NC(=O)c2ccc(F)c(Cl)c2)C(OC(C)=O)C(OC(C)=O)C1OC1OC(COC(C)=O)C(OC(C)=O)C(OC(C)=O)C1OC(C)=O` [Example 5, N-(hepta-O-acetyl-β-D-cellobiosyl)-3-chloro-4-fluoro-benzamide], the IC50 was 11.7 µM. With `O=C(NC1OC(CO)C(OC2OC3COC(c4ccccc4)OC3C(O)C2O)C(O)C1O)c1ccc(F)cc1Cl` [Example 6, N-(4′,6′-O-benzylidene-β-D-cellobiosyl)-2-chloro-4-flouro-benzamide], the “Porcine Smooth Muscle Cell Antiproliferation (% at 50 μM)” value amounted to 5% at 50 μM.
